The text below walks through data of patent publication US7655600B2, “1-(azolin-2-yl)amino-1,2-diphenylethane compounds for combating insects, arachnids and nematodes” (BASF Aktiengesellschaft, priority 2003, dated 2010).

In the data set the test system is Spodoptera eridania. In words: Southern armyworm (Spodoptera eridania), 2nd instar larvae, on dipped Sieva lima bean foliage. The following applies: 300 ppm, observation at 5 days. It is filed as in vivo. The procedure:
The active compounds were formulated • a. for testing the activity against Aphis gossypii, Myzus persicae, and Aphis fabae, as 50:50 acetone:water solutions amended with 100 ppm Kinetic® (surfactant), • b. for testing the activity against Spodoptera eridania as a 10.000 ppm solution in a mixture of 35% acetone and water, which was diluted with water, if needed,
After the experiments were completed, in each case the lowest concentration was determined at which the compound still caused an 75 to 100% inhibition or mortality in comparison with untreated controls (limit or minimal concentration).
Foliage of two Sieva lima beans plants at the first expanded true-leaf stage that are contained within a single 3.8 cm square plastic pot are dipped into the test solution with agitation for 3 seconds and allowed to dry in a hood. The pot is then placed in a 25.4 cm plastic zipper top bag and infested with ten 2nd instar caterpillars. At 5 days, observations are made of mortality, reduced feeding, or any interference with normal molting.

Each structure is given as a SMILES string.

For the molecule `Cc1cccc(CC(NC2=NCC(C)S2)c2ccccc2)c1` (stereo not shown) [Example 16], the “mortality in comparison with untreated controls” value is given as “over 50%”.
